Measurements published in paper PMC5729930, “Bitopic fluorescent antagonists of the A2A adenosine receptor based on pyrazolo[4,3-e][1,2,4]triazolo[1,5-c]pyrimidin-5-amine functionalized congeners” (MedChemComm, 2017).
Where two headings read alike, the source gives them in different places. Marks after values point to notes of the source that are not given here.

Columns and labels:
A1AR [1] = target: T1, A1AR (Homo sapiens, UniProt P30542); experiment: Competition radioligand binding, hA1AR ([3H]DPCPX); conditions: [3H]DPCPX 0.5 nM; for Ki: HEK-293 membranes, 1 h 25 °C, mean ± SEM, read-out: Affinity, Ki, A1; for inhibition at 10 µM: percent inhibition at 10 μM
T1 construct: expressed in transfected cells
T1 sequence (P30542 1-326): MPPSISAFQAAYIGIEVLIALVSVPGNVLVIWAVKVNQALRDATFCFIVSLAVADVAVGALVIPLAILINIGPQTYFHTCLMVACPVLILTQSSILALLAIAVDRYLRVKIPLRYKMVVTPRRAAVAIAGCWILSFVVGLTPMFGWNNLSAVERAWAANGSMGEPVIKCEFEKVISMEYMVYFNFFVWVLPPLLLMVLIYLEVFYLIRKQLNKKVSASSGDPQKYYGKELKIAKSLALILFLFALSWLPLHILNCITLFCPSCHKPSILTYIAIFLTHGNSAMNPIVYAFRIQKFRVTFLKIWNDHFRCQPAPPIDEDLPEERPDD
Experimental: (§1) The affinity of the amine congeners and other antagonists was measured using standard radioligand binding assays for hA1, A2A and A3ARs (Table 1).[1],[13],[14],[22] Membranes of human embryonic kidney (HEK)293 cells expressing the AR of interest were used in the assay. Primary amine congeners 6a–6d containing spacers of 2–5 methylenes were similar in terms of hA2AAR affinity (Ki 6–9 nM), with the butylamino congener 6c displaying the highest A2AAR selectivity in the series. The affinity of this compound for the hA3AR was determined to be 6.0 μM, with only slightly higher hA1AR affinity. Homologation to 6 methylenes in compound 6e lowered A2AAR affinity. […] No dependence of the affinity on the chain length was evident when comparing AlexaFluor647 conjugates 9 and 10. […]
(§2) Radioligand binding assays: Cell membranes were prepared as reported.1
(§3) Binding assays were carried out using standard radioligands and membrane preparations from HEK-293 cells stably expressing the human (h) A1, A2A or A3ARs or mouse (m) A1, A2A or A3ARs. The radioligands used were: A1AR, [3H]8-cyclopentyl-1,3-dipropylxanthine 14; A2AAR, [3H]2; A3AR, [125I]N6-(4-amino-3-iodobenzyl)adenosine-5′-N-methyluronamide 16. The radioligand for archival A2AAR affinity data presented in Table 1 was [3H]2-[p-(2-carboxyethyl)phenyl-ethylamino]-5′-N-ethylcarboxamidoadenosine 15. Nonspecific binding was determined using 10 µM 8-[4-[[[[(2-aminoethyl)amino]carbonyl]methyl]oxy]phenyl]-1,3-dipropylxanthine 17 (A1AR and A2AAR) or 10 µM adenosine-5′-N-ethyluronamide 18 (A3AR). HEK-293 cells expressing recombinant mA1, A2A, or A3AR […]
(§4) Protein was determined as reported.2 In all the binding experiments, IC50 values and Ki values were calculated using GraphPad Prism software (San Diego, CA). Values are expressed as mean±SEM. […]
(§5) Med. Chem. Comm., 2015, 6:555-563.
(§6) 2. Bradford, M. M. A rapid and sensitive method for the quantitation of microgram quantities of protein utilizing the principle of protein -dye binding. Anal. Biochem. 1976, 72, 248-254.

A2AAR = target: T2, A2AAR (Homo sapiens, UniProt P29274); experiment: Competition radioligand binding, hA2AAR ([3H]ZM241385 or [3H]CGS21680); conditions: human A2AAR, HEK-293 membranes, [3H]ZM241385 1.0 nM, 1 h 25 °C, mean ± SEM; read-out: Affinity, Ki, A2A
T2 construct: expressed in transfected cells
T2 sequence (P29274 whole entry): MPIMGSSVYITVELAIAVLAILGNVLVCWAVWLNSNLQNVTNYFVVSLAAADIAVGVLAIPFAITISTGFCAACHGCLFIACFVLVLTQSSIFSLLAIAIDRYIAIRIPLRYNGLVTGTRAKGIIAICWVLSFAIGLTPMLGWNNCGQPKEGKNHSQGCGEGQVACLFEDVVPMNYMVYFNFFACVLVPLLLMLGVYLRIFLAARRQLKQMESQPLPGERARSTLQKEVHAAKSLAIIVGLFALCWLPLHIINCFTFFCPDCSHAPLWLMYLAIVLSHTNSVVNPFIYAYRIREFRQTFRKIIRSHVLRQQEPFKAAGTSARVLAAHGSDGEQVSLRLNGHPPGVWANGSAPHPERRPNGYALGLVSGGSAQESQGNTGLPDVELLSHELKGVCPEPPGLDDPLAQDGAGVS
Experimental: (§7) The affinity of the amine congeners and other antagonists was measured using standard radioligand binding assays for hA1, A2A and A3ARs (Table 1).[1],[13],[14],[22] Membranes of human embryonic kidney (HEK)293 cells expressing the AR of interest were used in the assay. Primary amine congeners 6a–6d containing spacers of 2–5 methylenes were similar in terms of hA2AAR affinity (Ki 6–9 nM), with the butylamino congener 6c displaying the highest A2AAR selectivity in the series. The affinity of this compound for the hA3AR was determined to be 6.0 μM, with only slightly higher hA1AR affinity. Homologation to 6 methylenes in compound 6e lowered A2AAR affinity. […] No dependence of the affinity on the chain length was evident when comparing AlexaFluor647 conjugates 9 and 10.
Fig. 1 Antagonist radioligand ([^3H]2, 1.0 nM) binding inhibition curves for the hA2AAR for four antagonist fluorescent conjugates. Compound numbers: MRS7322 9, MRS7395 10, MRS7396 11 and MRS7416 12. Membranes from HEK-293 cells expressing the hA2AAR were used, and their incubation was performed for 1 h at 25 °C. Results are expressed as the mean ± SEM.
(§8) Cell culture for membrane binding assays and flow cytometry: HEK-293 cells stably expressing the A2AAR were grown in Dulbecco’s Modified Eagle’s Medium (DMEM) with 10% FBS, 100 units/ml penicillin, […] streptomycin, 2 mM L-glutamine and 0.500 mg/mL G418 Sulfate (Geneticin). […]
as §2, §3, §4, §5, §6

A3AR [2] = target: T3, A3AR (Homo sapiens, UniProt P0DMS8); experiment: Competition radioligand binding, hA3AR ([125I]I-AB-MECA); conditions: for inhibition at 10 µM: percent inhibition at 10 μM, read-out: % inhib, A3
T3 construct: expressed in transfected cells
T3 sequence (P0DMS8 1-318): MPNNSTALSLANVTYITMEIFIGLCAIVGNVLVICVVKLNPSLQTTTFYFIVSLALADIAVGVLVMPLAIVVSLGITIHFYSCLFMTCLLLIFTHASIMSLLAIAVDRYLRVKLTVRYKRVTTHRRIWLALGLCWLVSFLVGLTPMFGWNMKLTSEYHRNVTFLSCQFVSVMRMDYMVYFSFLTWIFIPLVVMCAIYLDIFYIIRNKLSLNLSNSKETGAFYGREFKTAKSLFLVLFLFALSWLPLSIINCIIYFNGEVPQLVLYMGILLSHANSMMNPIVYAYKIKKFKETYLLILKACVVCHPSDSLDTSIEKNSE
Experimental: as §1, §2, §3, §4, §5, §6

A3AR [3] = target: T3, A3AR; design: method as in earlier work; conditions: percent inhibition at 10 μM, 14 (Kumar et al. and Kecskés et al.); cited from earlier work
A1AR [4] = target: T1, A1AR; design: method as in earlier work; conditions: percent inhibition at 10 μM, 14 (Kumar et al. and Kecskés et al.); cited from earlier work
mA1AR = target: T4, mA1AR (Mus musculus, UniProt Q60612); experiment: Competition radioligand binding, mA1AR; conditions: mouse A1AR, percent inhibition at 10 μM
T4 construct: expressed in transfected cells; host or cells: HEK-293
T4 sequence (Q60612 1-326): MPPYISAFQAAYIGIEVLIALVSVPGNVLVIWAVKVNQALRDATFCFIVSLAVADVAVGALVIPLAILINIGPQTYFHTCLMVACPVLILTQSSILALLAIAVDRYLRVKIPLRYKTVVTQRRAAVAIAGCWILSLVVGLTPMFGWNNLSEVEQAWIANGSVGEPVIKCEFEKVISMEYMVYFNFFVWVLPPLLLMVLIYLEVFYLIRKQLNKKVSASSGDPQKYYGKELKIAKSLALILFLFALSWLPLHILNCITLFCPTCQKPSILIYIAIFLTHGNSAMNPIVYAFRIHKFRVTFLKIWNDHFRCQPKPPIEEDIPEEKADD
Experimental: as §1, §2, §3, §4, §5, §6

mA3AR = target: T5, mA3AR (Mus musculus, UniProt Q61618); experiment: Competition radioligand binding, mA3AR; conditions: mouse A3AR, percent inhibition at 10 μM; read-out: % inhib, A3 (m) (converted)
T5 construct: expressed in transfected cells; host or cells: HEK-293
T5 sequence (Q61618 1-319): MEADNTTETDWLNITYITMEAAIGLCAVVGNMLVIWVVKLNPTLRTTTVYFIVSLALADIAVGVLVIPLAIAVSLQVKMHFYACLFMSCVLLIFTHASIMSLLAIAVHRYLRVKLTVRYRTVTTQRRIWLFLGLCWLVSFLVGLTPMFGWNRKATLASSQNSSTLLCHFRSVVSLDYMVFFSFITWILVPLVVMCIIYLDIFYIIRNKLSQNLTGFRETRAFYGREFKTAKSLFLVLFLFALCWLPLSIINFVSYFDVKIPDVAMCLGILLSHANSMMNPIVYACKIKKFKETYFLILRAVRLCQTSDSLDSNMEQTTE
Experimental: as §1, §2, §3, §4, §5, §6

mA2AAR = target: T6, mA2AAR (Mus musculus, UniProt Q60613); experiment: Competition radioligand binding, mA2AAR; conditions: mouse A2AAR, HEK-293 membranes, mean ± SEM; read-out: Affinity, Ki, A2A (m) (converted)
T6 construct: expressed in transfected cells; host or cells: HEK-293
T6 sequence (Q60613 whole entry): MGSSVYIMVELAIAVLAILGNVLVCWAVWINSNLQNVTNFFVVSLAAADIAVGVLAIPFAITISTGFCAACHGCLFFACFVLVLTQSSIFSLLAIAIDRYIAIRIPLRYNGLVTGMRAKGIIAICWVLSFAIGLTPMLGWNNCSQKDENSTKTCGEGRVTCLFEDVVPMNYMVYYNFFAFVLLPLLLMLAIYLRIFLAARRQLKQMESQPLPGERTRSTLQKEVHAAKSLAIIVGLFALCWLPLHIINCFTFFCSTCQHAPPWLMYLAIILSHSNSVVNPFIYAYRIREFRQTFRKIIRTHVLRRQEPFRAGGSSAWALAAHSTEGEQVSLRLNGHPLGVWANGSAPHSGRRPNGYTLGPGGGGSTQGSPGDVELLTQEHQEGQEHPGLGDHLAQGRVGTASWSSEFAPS
Experimental: as §7, §8, §2, §3, §4, §5, §6

5HT2A serotonin receptor = target: T7, 5HT2A serotonin receptor (Homo sapiens, UniProt P28223); experiment: PDSP off-target radioligand binding, 5HT2A; conditions: PDSP radioligand binding inhibition
T7 construct: PDSP (screening service)
T7 sequence (P28223 whole entry): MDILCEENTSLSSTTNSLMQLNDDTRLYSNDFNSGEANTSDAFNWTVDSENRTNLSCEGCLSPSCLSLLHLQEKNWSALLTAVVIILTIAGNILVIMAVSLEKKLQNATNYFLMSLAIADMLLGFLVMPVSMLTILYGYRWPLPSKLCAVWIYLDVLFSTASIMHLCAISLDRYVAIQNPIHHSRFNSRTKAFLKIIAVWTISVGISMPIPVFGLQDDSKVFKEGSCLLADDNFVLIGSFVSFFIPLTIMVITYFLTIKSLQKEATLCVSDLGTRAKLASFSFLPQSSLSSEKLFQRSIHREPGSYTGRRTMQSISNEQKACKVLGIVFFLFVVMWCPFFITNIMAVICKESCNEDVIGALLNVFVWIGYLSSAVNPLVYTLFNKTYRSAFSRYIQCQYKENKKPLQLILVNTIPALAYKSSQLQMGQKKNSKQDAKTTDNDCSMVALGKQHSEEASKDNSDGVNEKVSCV
Experimental: (§9) . Off-target binding activities at 45 diverse receptors were determined by PDSP[25] for selected compounds: 6c and 13 (ESI ^†). […]; 1.92 μM, 5HT2B receptor. Thus, the primary amine precursor of the fluorescent conjugates 10–12 was not promiscuous in its interaction with other proteins, i.e. this chemical series is not associated with pan-assay interference compounds.[26]
(§10) Chinese hamster ovary (CHO) cells stably expressing the human A2AAR were cultured in Dulbecco's Modified Eagle Medium (Mediatech, Manassas, VA) supplemented with 10% fetal bovine serum, 100 units/ml penicillin, 100 µg/ml streptomycin and 2 µmol/ml glutamine. Cells were plated in 96-well plates in 100 µl medium. After 24 h, the medium was removed and cells were washed three times with 100 µl DMEM, containing 50 mM HEPES, pH 7.4. Cells were treated with antagonists (or medium for control) in the presence of rolipram (10 µM) and adenosine deaminase (3 units/ml) and 5 min later with agonist for 20 min. The reaction was terminated by removal of the supernatant, and cells were lysed upon the addition of 100 µl of lysis buffer (0.3% Tween-20). cAMP was measured using ALPHAScreen cAMP kits (PerkinElmer, Boston, MA) as instructed by the manufacturer.
(§11) Refer to: http://pdspdb.unc.edu for full list of comprehensive screen at 45 targets.
(§12) 5HT2A serotonin receptor: […]

5HT2B receptor = target: T8, 5HT2B receptor (Homo sapiens, UniProt P41595); experiment: PDSP off-target radioligand binding, 5HT2B; conditions: PDSP radioligand binding inhibition
T8 construct: PDSP (screening service)
T8 sequence (P41595 whole entry): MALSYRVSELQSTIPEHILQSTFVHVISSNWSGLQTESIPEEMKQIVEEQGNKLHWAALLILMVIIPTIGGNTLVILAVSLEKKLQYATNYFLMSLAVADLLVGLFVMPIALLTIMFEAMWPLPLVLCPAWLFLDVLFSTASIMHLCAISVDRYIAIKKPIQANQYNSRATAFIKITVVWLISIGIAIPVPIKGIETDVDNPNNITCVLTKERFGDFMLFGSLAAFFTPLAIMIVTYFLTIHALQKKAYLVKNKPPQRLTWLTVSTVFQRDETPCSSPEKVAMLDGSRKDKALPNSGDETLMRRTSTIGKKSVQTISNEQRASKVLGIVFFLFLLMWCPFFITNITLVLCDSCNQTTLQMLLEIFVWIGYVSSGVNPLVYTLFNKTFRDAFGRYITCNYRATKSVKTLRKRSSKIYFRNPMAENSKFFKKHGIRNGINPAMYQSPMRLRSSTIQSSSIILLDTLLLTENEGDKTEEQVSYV
Experimental: as §9, §10, §11, §12

[5] = HEK-293 membranes, [125I]I-AB-MECA 0.2 nM, 1 h 25 °C, mean ± SEM, read-out: Affinity, Ki, A3

Row | Structure (SMILES) | Ki (A1AR [1]) | Ki (A2AAR) | Ki (A3AR [2]; [5]) | % inhib, A3 (A3AR [3]) | % inhib, A1 (A1AR [4]) | further results
1 | NCCCNC(=O)COc1ccc(CCCn2ncc3c2nc(N)n2nc(-c4ccco4)nc32)cc1 [6b] | 1300 ± 350 nM | 9.29 ± 7.92 nM | 2170 ± 660 nM | – | – | –
2 | NCCCCCNC(=O)COc1ccc(CCCn2ncc3c2nc(N)n2nc(-c4ccco4)nc32)cc1 [6d] | 1910 ± 120 nM | 6.36 ± 3.58 nM | 656 ± 132 nM | – | – | –
3 | N=c1ccc2c(-c3ccc(C(=O)NCCNC(=O)COc4ccc(CCCn5ncc6c5nc(N)n5nc(-c7ccco7)nc65)cc4)cc3C(=O)O)c3ccc(N)c(S(=O)(=O)O)c3oc-2c1S(=O)(=O)O [compound 5] | – | – | – | (4 ± 2%) ^c | (20 ± 3%) ^c | –
4 | Nc1nc2c(cnn2CCCc2ccc(O)cc2)c2nc(-c3ccco3)nn12 [compound 7] | – | – | – | (34 ± 3%) ^c | (66 ± 2%) ^c | –
5 | CC1(C)C(/C=C/C=C/C=C2/N(CCCS(=O)(=O)O)c3ccc(S(=O)(=O)O)cc3C2(C)CCCCCC(=O)NCCCCNC(=O)COc2ccc(CCCn3ncc4c3nc(N)n3nc(-c5ccco5)nc43)cc2)=[N+](CCCS(=O)(=O)O)c2ccc(S(=O)(=O)[O-])cc21 (stereo not drawn) [compound 10] | – | 295 ± 176 nM | – | – | – | inhibition at 10 µM (A1AR [1]): 20%; inhibition at 10 µM (A3AR [2]; [125I]I-AB-MECA 0.2 nM): 21%
6 | CC1(C)C(/C=C/C=C/C=C2/N(CCCS(=O)(=O)O)c3ccc(S(=O)(=O)O)cc3C2(C)CCCCCC(=O)NCCNC(=O)COc2ccc(CCCn3ncc4c3nc(N)n3nc(-c5ccco5)nc43)cc2)=[N+](CCCS(=O)(=O)O)c2ccc(S(=O)(=O)[O-])cc21 (stereo not drawn) [compound 9] | – | 332 ± 165 nM | – | – | – | inhibition at 10 µM (mA1AR): 3%; inhibition at 10 µM (A1AR [1]): 13%; inhibition at 10 µM (mA3AR): 4%; Ki (mA2AAR): 458 nM; inhibition at 10 µM (A3AR [2]; [125I]I-AB-MECA 0.2 nM): 21%
7 | COc1ccc(CCCn2ncc3c2nc(N)n2nc(-c4ccco4)nc32)cc1 [compound 3, 5-amino-7-(3-(4-methoxy)phenylpropyl)-2-(2-furyl)pyrazolo[4,3-e]-1,2,4-triazolo[1,5-c]pyrimidine] | – | – | – | (67 ± 1%) ^c | (35 ± 5%) ^c | –
8 | NCCCCCCNC(=O)COc1ccc(CCCn2ncc3c2nc(N)n2nc(-c4ccco4)nc32)cc1 [6e] | 6500 ± 2830 nM | 22.8 ± 8.45 nM | 2070 ± 850 nM | – | – | –
9 | NCCCCNC(=O)COc1ccc(CCCn2ncc3c2nc(N)n2nc(-c4ccco4)nc32)cc1 [6c] | 2390 ± 100 nM | 6.46 ± 1.63 nM | 5990 ± 2900 nM | – | – | Ki (5HT2A serotonin receptor): 3360 nM; Ki (A3AR [2]; read-out: affinity for the hA3AR): 6000 nM; Ki (5HT2B receptor): 1920 nM
